Consider 32 molecules from patent US20250115583A1, “BICYCLIC INDAZOLE GLUCOCORTICOID RECEPTOR ANTAGONISTS” (Corcept Therapeutics Incorporated, priority 2021, published 2025).

Sequence of glucocorticoid receptor (P04150 whole entry): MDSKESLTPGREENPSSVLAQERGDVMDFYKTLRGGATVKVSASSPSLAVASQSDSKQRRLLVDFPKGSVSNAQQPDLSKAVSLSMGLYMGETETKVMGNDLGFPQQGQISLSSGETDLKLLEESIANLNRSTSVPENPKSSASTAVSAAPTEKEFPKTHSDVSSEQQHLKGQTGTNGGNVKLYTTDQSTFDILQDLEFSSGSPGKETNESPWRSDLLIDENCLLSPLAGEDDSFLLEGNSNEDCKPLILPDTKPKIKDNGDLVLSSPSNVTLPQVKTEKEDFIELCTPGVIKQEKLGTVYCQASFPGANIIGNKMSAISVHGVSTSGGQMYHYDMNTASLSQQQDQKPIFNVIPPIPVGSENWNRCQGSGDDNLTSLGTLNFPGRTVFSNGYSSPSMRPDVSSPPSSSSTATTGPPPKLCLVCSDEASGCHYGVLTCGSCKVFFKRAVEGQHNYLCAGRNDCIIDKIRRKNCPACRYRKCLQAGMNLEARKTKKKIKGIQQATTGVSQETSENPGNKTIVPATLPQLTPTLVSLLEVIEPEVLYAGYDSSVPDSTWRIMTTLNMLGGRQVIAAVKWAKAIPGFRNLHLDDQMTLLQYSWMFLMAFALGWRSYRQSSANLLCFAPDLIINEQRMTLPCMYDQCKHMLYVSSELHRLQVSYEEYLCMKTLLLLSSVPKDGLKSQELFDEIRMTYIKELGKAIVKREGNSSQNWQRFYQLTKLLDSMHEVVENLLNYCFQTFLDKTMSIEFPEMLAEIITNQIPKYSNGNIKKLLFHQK

The target of the test is glucocorticoid receptor (Homo sapiens (Human), UniProt P04150). The test can be described thus: HepG2 TAT assay: inhibition of dexamethasone-induced tyrosine aminotransferase (TAT) activity. The following applies: HepG2 cells, challenge of 100 nM dexamethasone, 18-24 hr; IC50 converted to Ki by Cheng and Prusoff equation. Type of test: cell-based. As for the experimental part:
Glucocorticoid mediated activation of TAT occurs by transactivation of glucocorticoid response elements in the TAT promoter by glucocorticoid receptor-agonist complex.
HepG2 cells were cultured using MEME media supplemented with 10% (v/v) foetal bovine serum; 2 mM L-glutamine and 1% (v/v) NEAA at 37° C., 5%/95% (v/v) CO2/air.
Compounds were serially half log diluted in 100% (v/v) dimethylsulphoxide from a 10 mM stock.
HepG2 cells were then lysed with 30 μl of cell lysis buffer containing a protease inhibitor cocktail for 15 minutes at 4° C. […] After 2 hours incubation at 37° C. the reaction was terminated by the addition of 15 μl of 10M aqueous potassium hydroxide solution, and the plates incubated for a further 30 minutes at 37° C.
[compound] and fitting the data to a 4 parameter logistic equation.
What is called Ki is the dissociation constant of the complex between target and ligand, obtained from inhibition or displacement. Read a high Ki as lower affinity. The molecule `Cc1cnc(C(=O)N2C[C@@H]3[C@@H](c4ccccc4)[C@]3(c3cc4cnn(-c5ccc(F)cc5)c4cc3C)C2)s1` (stereo in doubt) [Example 176, (1-(1-(4-fluorophenyl)-6-methyl-1H-indazol-5-yl)-6-phenyl-3-azabicyclo[3.1.0]hexan-3-yl)(5-methylthiazol-2-yl)methanone] yielded a Ki of 45 nM.

Take `CNS(=O)(=O)N1C[C@@H]2[C@@H](c3ccccc3)[C@]2(c2cc3cnn(-c4ccc(F)cc4)c3cc2C)C1` [Example 106]: the affinity, expressed as Ki, was 55 nM. The molecule `COC1CC2CN(S(C)(=O)=O)CC2(c2cc3cnn(-c4ccc(F)cc4)c3cc2C)C1` (centres unmarked) [Example 34, 1-(4-fluorophenyl)-5-(5-methoxy-2-(methylsulfonyl)hexahydrocyclopenta[c]pyrrol-3a(1H)-yl)-6-methyl-1H-indazole] came in with a Ki of 800 nM. `Cc1cc2c(cnn2-c2ccc(F)cc2)cc1[C@@]12CN(C(=O)c3cccc(C#N)c3)C[C@@H]1[C@H]2c1ccccc1` (stereo in doubt) [Example 114, 3-(1-(1-(4-fluorophenyl)-6-methyl-1H-indazol-5-yl)-6-phenyl-3-azabicyclo[3.1.0]hexane-3-carbonyl)benzonitrile] registered a Ki of 26 nM.

For `Cc1cc2c(cnn2-c2ccc(F)cc2)cc1[C@@]12CN(S(=O)(=O)c3cnn(C)n3)C[C@@H]1[C@H]2C(=O)Nc1ccc(F)cn1` (stereo in doubt) [Example 56, 1-(1-(4-fluorophenyl)-6-methyl-1H-indazol-5-yl)-N-(5-fluoropyridin-2-yl)-3-((2-methyl-2H-1,2,3-triazol-4-yl)sulfonyl)-3-azabicyclo[3.1.0]hexane-6-carboxamide], the affinity, expressed as Ki, was 38 nM. Take `COCC(=O)N1C[C@@H]2[C@@H](c3ccccc3)[C@]2(c2cc3cnn(-c4ccc(F)cc4)c3cc2C)C1` (single isomer, unassigned) [Example 119, 1-(1-(1-(4-fluorophenyl)-6-methyl-1H-indazol-5-yl)-6-phenyl-3-azabicyclo[3.1.0]hexan-3-yl)-2-methoxyethan-1-one]: the Ki came out at 48 nM. Consider `Cc1cccc(NC(=O)[C@H]2[C@@H]3CN(S(=O)(=O)c4cnn(C)n4)C[C@@]32c2cc3cnn(-c4ccc(F)cc4)c3cc2C)c1` [Example 63], for which the affinity corresponds to a Ki of 88 nM. For the molecule `Cc1cc2c(cnn2-c2ccc(F)cc2)cc1[C@@]12CN(S(=O)(=O)c3cnn(C)n3)C[C@@H]1[C@H]2COC(C)C` (stereo in doubt) [Example 51, 1-(4-fluorophenyl)-5-(6-(isopropoxymethyl)-3-((2-methyl-2H-1,2,3-triazol-4-yl)sulfonyl)-3-azabicyclo[3.1.0]hexan-1-yl)-6-methyl-1H-indazole], the affinity, expressed as Ki, was 290 nM. In the case of `COC1(c2ccccc2)CC2CN(C(=O)OC(C)(C)C)CC2(c2cc3cnn(-c4ccc(F)cc4)c3cc2C)C1` (centres unmarked) [Example 18, tert-butyl 3a-(1-(4-fluorophenyl)-6-methyl-1H-indazol-5-yl)-5-methoxy-5-phenylhexahydrocyclopenta[c]pyrrole-2(1H)-carboxylate], the affinity, expressed as Ki, was 44 nM. Regarding `CCn1cc(S(=O)(=O)N2C[C@@H]3C[C@@](OC)(c4ccccc4)C[C@]3(c3cc4cnn(-c5ccc(F)cc5)c4cc3C)C2)cn1` [Example 21], the Ki came to 37 nM. `CC(=O)N1CC2CC(Oc3ccccc3)CC2(c2cc3cnn(-c4ccc(F)cc4)c3cc2C)C1` (centres unmarked) [Example 40]: the affinity corresponds to a Ki of 420 nM. For the molecule `Cc1cc2c(cnn2-c2ccc(F)cc2)cc1[C@@]12CN(c3ncccn3)C[C@@H]1[C@H]2c1ccccc1` (stereo in doubt) [Example 185, 1-(4-fluorophenyl)-6-methyl-5-(6-phenyl-3-(pyrimidin-2-yl)-3-azabicyclo[3.1.0]hexan-1-yl)-1H-indazole], affinity was put at a Ki of 100 nM. Take `Cc1cc2c(cnn2-c2ccc(F)cc2)cc1C12CC(OCc3ccccc3)CC1CN(C(=O)OC(C)(C)C)C2` (centres unmarked) [Example 35, tert-butyl 5-(benzyloxy)-3a-(1-(4-fluorophenyl)-6-methyl-1H-indazol-5-yl)hexahydrocyclopenta[c]pyrrole-2(1H)-carboxylate]: the affinity corresponds to a Ki of 160 nM. `Cc1cc2c(cnn2-c2ccc(F)cc2)cc1C12CC(Oc3ccccc3)CC1CN(S(C)(=O)=O)C2` (centres unmarked) [Example 36, 1-(4-fluorophenyl)-6-methyl-5-(2-(methylsulfonyl)-5-phenoxyhexahydrocyclopenta[c]pyrrol-3a(1H)-yl)-1H-indazole]: the inhibitory constant (Ki) was 72 nM. `Cc1cc2c(cnn2-c2ccc(F)cc2)cc1[C@@]12CN(S(C)(=O)=O)C[C@@H]1[C@H]2c1ccccc1` [Example 77] displayed an inhibition constant Ki of 39 nM. `COCCn1cc(S(=O)(=O)N2C[C@H]3[C@H](c4ccccc4)[C@@]3(c3cc4cnn(-c5ccc(F)cc5)c4cc3C)C2)cn1` [Example 79] displayed an inhibition constant (Ki) of 33 nM.

Molecule `Cc1cc2c(cnn2-c2ccc(F)cc2)cc1C12CC(Oc3ccccc3)CC1CN(S(C)(=O)=O)C2` (centres unmarked) [Example 38] showed an inhibition constant Ki of 97 nM. For `Cc1cc2c(cnn2-c2ccc(F)cc2)cc1[C@@]12CN(C(=O)c3ccn(C)n3)C[C@@H]1[C@H]2c1ccccc1` (stereo in doubt) [Example 154, (1-(1-(4-fluorophenyl)-6-methyl-1H-indazol-5-yl)-6-phenyl-3-azabicyclo[3.1.0]hexan-3-yl)(1-methyl-1H-pyrazol-3-yl)methanone], the affinity, expressed as Ki, was 16 nM. Turning to `Cc1cc2c(cnn2-c2ccc(F)cc2)cc1C12CC(Oc3ccccn3)CC1CN(S(C)(=O)=O)C2` (centres unmarked) [Example 41], the affinity, expressed as Ki, was 110 nM. The molecule `Cc1cc2c(cnn2-c2ccc(F)cc2)cc1C12CN(S(=O)(=O)c3cnn(C)c3)CC1CC(F)(c1ccccc1)C2` (centres unmarked) [Example 4, 5-(5-fluoro-2-((1-methyl-1H-pyrazol-4-yl)sulfonyl)-5-phenylhexahydrocyclopenta[c]pyrrol-3a(1H)-yl)-1-(4-fluorophenyl)-6-methyl-1H-indazole] had an inhibition constant Ki of 540 nM. The molecule `CO[C@@]1(c2ccccc2)C[C@@H]2CN(S(=O)(=O)c3cnn(C)c3)C[C@]2(c2cc3cnn(-c4ccc(F)cc4)c3cc2C)C1` [Example 7, 1-(4-fluorophenyl)-5-((3aR,5S,6aS)-5-methoxy-2-((1-methyl-1H-pyrazol-4-yl)sulfonyl)-5-phenylhexahydrocyclopenta[c]pyrrol-3a(1H)-yl)-6-methyl-1H-indazole] had an inhibition constant Ki of 350 nM. For the molecule `Cc1cc2c(cnn2-c2ccc(F)cc2)cc1[C@@]12CN(C(=O)c3ccc(C(F)(F)F)cn3)C[C@@H]1[C@H]2c1ccccc1` (stereo in doubt) [Example 168, (1-(1-(4-fluorophenyl)-6-methyl-1H-indazol-5-yl)-6-phenyl-3-azabicyclo[3.1.0]hexan-3-yl)(5-(trifluoromethyl)pyridin-2-yl)methanone], the Ki is 39 nM.

`Cc1cc2c(cnn2-c2ccc(F)cc2)cc1[C@@]12CN(S(=O)(=O)C3CC3)C[C@@H]1[C@H]2c1ccccc1` [Example 85] showed an inhibition constant (Ki) of 21 nM.

With `Cc1cc2c(cnn2-c2ccc(F)cc2)cc1C12CC(Oc3cccnc3)CC1CN(S(C)(=O)=O)C2` (centres unmarked) [Example 42], the Ki is 260 nM.

`COC1(c2ccccc2)CC2CN(S(=O)(=O)C(C)C)CC2(c2cc3cnn(-c4ccc(F)cc4)c3cc2C)C1` (centres unmarked) [Example 30] yielded a Ki of 32 nM. `CCNC(=O)[C@@H]1[C@H]2CN(S(=O)(=O)c3cnn(C)n3)C[C@]21c1cc2cnn(-c3ccc(F)cc3)c2cc1C` [Example 65] came in with an inhibition constant (Ki) of 430 nM. On to `Cc1cc2c(cnn2-c2ccc(F)cc2)cc1[C@@]12CN(C(=O)c3ccc(C#N)cn3)C[C@@H]1[C@H]2c1ccccc1` (single isomer, unassigned) [Example 163, 6-(1-(1-(4-fluorophenyl)-6-methyl-1H-indazol-5-yl)-6-phenyl-3-azabicyclo[3.1.0]hexane-3-carbonyl)nicotinonitrile], for which the Ki was found to be 19 nM.

Molecule `Cc1cc2c(cnn2-c2ccc(F)cc2)cc1C12CN(S(=O)(=O)c3cnn(C)n3)CC1C2c1ncco1` (centres unmarked) [Example 133, 2-(1-(1-(4-fluorophenyl)-6-methyl-1H-indazol-5-yl)-3-((2-methyl-2H-1,2,3-triazol-4-yl)sulfonyl)-3-azabicyclo[3.1.0]hexan-6-yl)oxazole] returned a Ki of 260 nM. The value for `COC(=O)N1C[C@@H]2[C@@H](c3ccccc3)[C@]2(c2cc3cnn(-c4ccc(F)cc4)c3cc2C)C1` (single isomer, unassigned) [Example 118, methyl 1-(1-(4-fluorophenyl)-6-methyl-1H-indazol-5-yl)-6-phenyl-3-azabicyclo[3.1.0]hexane-3-carboxylate] was 40 nM; that for `Cc1cc2c(cnn2-c2ccc(F)cc2)cc1[C@@]12CN(C(=O)c3ncccn3)C[C@@H]1[C@H]2c1ccccc1` (stereo in doubt) [Example 171, (1-(1-(4-fluorophenyl)-6-methyl-1H-indazol-5-yl)-6-phenyl-3-azabicyclo[3.1.0]hexan-3-yl)(pyrimidin-2-yl)methanone] was 36 nM; that for `CO[C@@]1(c2ccccc2)C[C@H]2CN(S(=O)(=O)c3cnn(C)n3)C[C@@]2(c2cc3cnn(-c4ccc(F)cc4)c3cc2C)C1` (stereo in doubt) [Example 19, 1-(4-fluorophenyl)-5-(5-methoxy-2-((2-methyl-2H-1,2,3-triazol-4-yl)sulfonyl)-5-phenylhexahydrocyclopenta[c]pyrrol-3a(1H)-yl)-6-methyl-1H-indazole] was 47 nM. Turning to `CO[C@@]1(c2ccccc2)C[C@H]2CN(S(=O)(=O)c3cnn(C(C)C)n3)C[C@@]2(c2cc3cnn(-c4ccc(F)cc4)c3cc2C)C1` [Example 23], the affinity, expressed as Ki, was 30 nM.
